Reference: ChEMBL document CHEMBL1909046, “DrugMatrix in vitro pharmacology data”

Key:
[1] = DRUGMATRIX: Leukotriene, BLT (LTB4) radioligand binding (ligand: [3H]LTB4); type: cell membranes, Membrane; conditions: u-937; Not Active = under 50% inhibition at 10 µM
[2] = DRUGMATRIX: Nicotinic Acetylcholine radioligand binding (ligand: [125I] Epibatidine); type: cell membranes, Membrane; conditions: imr-32; Not Active = under 50% inhibition at 10 µM
[3] = target: T1, 3-hydroxy-3-methylglutaryl-coenzyme A reductase (Homo sapiens, UniProt P04035); set-up: species or system Escherichia coli;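 further: enzyme inhibition assay of HMG-CoA reductase using radiolabeled [14C]HMG-CoA as substrate; in other assays of this panel Not Active means under 50% inhibition at 10 µM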
T1 sequence (P04035 whole entry): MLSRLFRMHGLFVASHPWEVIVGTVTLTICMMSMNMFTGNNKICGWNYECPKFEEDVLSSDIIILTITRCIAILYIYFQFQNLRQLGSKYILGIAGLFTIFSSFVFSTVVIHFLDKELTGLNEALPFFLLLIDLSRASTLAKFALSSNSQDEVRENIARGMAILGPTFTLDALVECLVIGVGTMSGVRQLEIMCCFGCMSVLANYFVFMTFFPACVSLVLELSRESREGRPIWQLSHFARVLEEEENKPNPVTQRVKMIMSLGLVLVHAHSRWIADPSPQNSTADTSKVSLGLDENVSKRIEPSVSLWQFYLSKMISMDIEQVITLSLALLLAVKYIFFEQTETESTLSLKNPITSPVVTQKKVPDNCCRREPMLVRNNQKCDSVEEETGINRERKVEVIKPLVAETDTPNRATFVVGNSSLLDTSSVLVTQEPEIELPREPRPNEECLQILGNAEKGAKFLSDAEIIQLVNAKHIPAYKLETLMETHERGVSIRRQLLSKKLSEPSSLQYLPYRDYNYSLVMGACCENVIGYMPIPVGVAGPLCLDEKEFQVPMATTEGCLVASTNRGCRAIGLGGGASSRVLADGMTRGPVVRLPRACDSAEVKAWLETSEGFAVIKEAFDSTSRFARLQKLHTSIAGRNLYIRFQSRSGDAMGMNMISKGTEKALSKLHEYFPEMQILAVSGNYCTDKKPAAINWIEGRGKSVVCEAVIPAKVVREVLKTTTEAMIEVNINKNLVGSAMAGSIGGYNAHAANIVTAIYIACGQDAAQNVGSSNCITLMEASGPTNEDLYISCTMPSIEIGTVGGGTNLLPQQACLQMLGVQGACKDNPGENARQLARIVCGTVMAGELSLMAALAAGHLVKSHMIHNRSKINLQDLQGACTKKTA

[4] = target: Kappa-type opioid receptor (Homo sapiens, UniProt P41145); assay: DRUGMATRIX: Opiate kappa (OP2, KOP) radioligand binding (ligand: [3H] Diprenorphine); type: cell membranes, HEK293, Membrane; conditions: hek293; Not Active = under 50% inhibition at 10 µM
Chain of Kappa-type opioid receptor (P41145 whole entry): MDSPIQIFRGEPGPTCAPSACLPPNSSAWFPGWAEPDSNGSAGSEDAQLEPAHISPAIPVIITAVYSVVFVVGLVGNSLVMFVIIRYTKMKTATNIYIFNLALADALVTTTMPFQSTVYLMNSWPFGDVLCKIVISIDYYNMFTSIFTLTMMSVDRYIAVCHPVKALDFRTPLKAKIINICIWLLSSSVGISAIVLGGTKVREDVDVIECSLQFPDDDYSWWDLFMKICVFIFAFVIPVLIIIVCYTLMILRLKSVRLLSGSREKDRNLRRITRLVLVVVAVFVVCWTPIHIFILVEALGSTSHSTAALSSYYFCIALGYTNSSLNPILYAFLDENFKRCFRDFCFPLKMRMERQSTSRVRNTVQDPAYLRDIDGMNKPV

[5] = target: T2, Interstitial collagenase (Homo sapiens, UniProt P03956); assay: biochemical; type: tissue-based, Rheumatoid synovial fibroblasts;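 further: MMP-1 enzyme inhibition assay using a peptide substrate; in other assays of this panel Not Active means under 50% inhibition at 10 µM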
T2 sequence (P03956 whole entry): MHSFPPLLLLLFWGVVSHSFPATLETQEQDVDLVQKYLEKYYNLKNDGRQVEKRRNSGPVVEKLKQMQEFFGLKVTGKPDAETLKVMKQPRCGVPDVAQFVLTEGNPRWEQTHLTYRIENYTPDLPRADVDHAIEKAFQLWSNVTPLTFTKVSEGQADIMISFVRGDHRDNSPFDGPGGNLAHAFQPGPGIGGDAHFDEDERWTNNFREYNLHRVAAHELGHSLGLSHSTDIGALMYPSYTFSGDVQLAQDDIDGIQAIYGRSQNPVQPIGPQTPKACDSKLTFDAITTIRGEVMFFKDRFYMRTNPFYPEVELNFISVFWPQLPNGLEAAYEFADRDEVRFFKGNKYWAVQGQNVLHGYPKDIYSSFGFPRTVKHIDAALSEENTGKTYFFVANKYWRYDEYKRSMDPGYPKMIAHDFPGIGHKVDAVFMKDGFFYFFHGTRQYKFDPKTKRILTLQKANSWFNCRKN

[6] = DRUGMATRIX: beta-Lactamase enzyme inhibition (substrate: Nitrocefin); set-up: species or system Bacillus cereus; conditions: Not Active = under 50% inhibition at 10 µM
[7] = DRUGMATRIX: ATPase, Na+/K+ enzyme inhibition (substrate: ATP); type: tissue-based, Sus scrofa, Heart; conditions: Not Active = under 50% inhibition at 10 µM

CC(C)C[C@H]1C(=O)N2CCC[C@H]2[C@]2(O)O[C@](NC(=O)[C@@H]3C=C4c5cccc6[nH]cc(c56)C[C@H]4N(C)C3)(C(C)C)C(=O)N12 [ERGOCRYPTINE]
Not Active: IC50 [1] | Ki [1] | IC50 [2] | Ki [2] | IC50 [3] | IC50 [4] | IC50 [5] | IC50 [6] | Ki [6] | IC50 [7] | Ki [7]

C[C@]12CC[C@@H]3c4ccc(O)cc4CC[C@H]3[C@@H]1C[C@@H](O)[C@@H]2O [ESTRIOL]
Not Active: IC50 [1] | Ki [1] | IC50 [2] | Ki [2] | IC50 [3] | IC50 [4] | IC50 [5] | IC50 [6] | Ki [6] | IC50 [7] | Ki [7]

C#C[C@]1(O)CC[C@H]2[C@@H]3CCC4=CC(=O)CC[C@]4(C)[C@H]3CC[C@@]21C [ETHISTERONE]
Not Active: IC50 [1] | Ki [1] | IC50 [2] | Ki [2] | IC50 [3] | IC50 [4] | IC50 [5] | IC50 [6] | Ki [6] | IC50 [7] | Ki [7]

CC(O)(P(=O)(O)O)P(=O)(O)O [ETIDRONIC ACID]
Not Active: IC50 [1] | Ki [1] | IC50 [2] | Ki [2] | IC50 [3] | IC50 [4] | IC50 [5] | IC50 [6] | Ki [6] | IC50 [7] | Ki [7]

CC(C)(C(=O)O)c1ccc(C(O)CCCN2CCC(C(O)(c3ccccc3)c3ccccc3)CC2)cc1 (centres undefined) [FEXOFENADINE]
Not Active: IC50 [1] | Ki [1] | IC50 [2] | Ki [2] | IC50 [3] | IC50 [4] | IC50 [5] | IC50 [6] | Ki [6] | IC50 [7] | Ki [7]

CN1CCN(c2c(F)cc3c(=O)c(C(=O)O)cn(CCF)c3c2F)CC1 [FLEROXACIN]
Not Active: IC50 [1] | Ki [1] | IC50 [2] | Ki [2] | IC50 [3] | IC50 [4] | IC50 [5] | IC50 [6] | Ki [6] | IC50 [7] | Ki [7]

O=c1[nH]c(=O)n([C@H]2C[C@H](O)[C@@H](CO)O2)cc1F [FLOXURIDINE]
Not Active: IC50 [1] | Ki [1] | IC50 [2] | Ki [2] | IC50 [3] | IC50 [4] | IC50 [5] | IC50 [6] | Ki [6] | IC50 [7] | Ki [7]

COC(=O)Nc1nc2cc(C(=O)c3ccc(F)cc3)ccc2[nH]1 [FLUBENDAZOLE]
Not Active: IC50 [1] | Ki [1] | IC50 [2] | Ki [2] | IC50 [3] | IC50 [4] | IC50 [5] | IC50 [6] | Ki [6] | IC50 [7] | Ki [7]

CC(=O)OCC(=O)[C@@]1(O)CC[C@H]2[C@@H]3CCC4=CC(=O)CC[C@]4(C)[C@@]3(F)[C@@H](O)C[C@@]21C [FLUDROCORTISONE ACETATE]
Not Active: IC50 [1] | Ki [1] | IC50 [2] | Ki [2] | IC50 [3] | IC50 [4] | IC50 [5] | IC50 [6] | Ki [6] | IC50 [7] | Ki [7]

CCOC(=O)c1ncn2c1CN(C)C(=O)c1cc(F)ccc1-2 [FLUMAZENIL]
Not Active: IC50 [1] | Ki [1] | IC50 [2] | Ki [2] | IC50 [3] | IC50 [4] | IC50 [5] | IC50 [6] | Ki [6] | IC50 [7] | Ki [7]

CC(=O)OCC(=O)[C@@]12OC(C)(C)O[C@@H]1C[C@H]1[C@@H]3C[C@H](F)C4=CC(=O)C=C[C@]4(C)[C@@]3(F)[C@@H](O)C[C@@]12C [FLUOCINONIDE]
Not Active: IC50 [1] | Ki [1] | IC50 [2] | Ki [2] | IC50 [3] | IC50 [4] | IC50 [5] | IC50 [6] | Ki [6] | IC50 [7] | Ki [7]

O=C(O)P(=O)(O)O [FOSCARNET]
Not Active: IC50 [1] | Ki [1] | IC50 [2] | Ki [2] | IC50 [3] | IC50 [4] | IC50 [5] | IC50 [6] | Ki [6] | IC50 [7] | Ki [7]

Cc1ccc(C)c(OCCCC(C)(C)C(=O)O)c1 [GEMFIBROZIL]
Not Active: IC50 [1] | Ki [1] | IC50 [2] | Ki [2] | IC50 [3] | IC50 [4] | IC50 [5] | IC50 [6] | Ki [6] | IC50 [7] | Ki [7]

O=c1c(-c2ccc(O)cc2)coc2cc(O)cc(O)c12 [GENISTEIN]
Not Active: IC50 [1] | Ki [1] | IC50 [2] | Ki [2] | IC50 [3] | IC50 [4] | IC50 [5] | IC50 [6] | Ki [6] | IC50 [7] | Ki [7]

CCC1=C(C)CN(C(=O)NCCc2ccc(S(=O)(=O)NC(=O)N[C@H]3CC[C@H](C)CC3)cc2)C1=O [GLIMEPIRIDE]
Not Active: IC50 [1] | Ki [1] | IC50 [2] | Ki [2] | IC50 [3] | IC50 [4] | IC50 [5] | IC50 [6] | Ki [6] | IC50 [7] | Ki [7]

Nc1cc(-c2ccncc2)c[nH]c1=O [INAMRINONE]
Not Active: IC50 [1] | Ki [1] | IC50 [2] | Ki [2] | IC50 [3] | IC50 [4] | IC50 [5] | IC50 [6] | Ki [6] | IC50 [7] | Ki [7]

CCCCC1=NC2(CCCC2)C(=O)N1Cc1ccc(-c2ccccc2-c2nnn[nH]2)cc1 [IRBESARTAN]
Not Active: IC50 [1] | Ki [1] | IC50 [2] | Ki [2] | IC50 [3] | IC50 [4] | IC50 [5] | IC50 [6] | Ki [6] | IC50 [7] | Ki [7]

CN1CCC(=C2c3ccccc3CC(=O)c3sccc32)CC1 [KETOTIFEN]
Not Active: IC50 [1] | Ki [1] | IC50 [2] | Ki [2] | IC50 [3] | IC50 [4] | IC50 [5] | IC50 [6] | Ki [6] | IC50 [7] | Ki [7]

N[C@@H](Cn1ccc(=O)c(O)c1)C(=O)O [L-MIMOSINE]
Not Active: IC50 [1] | Ki [1] | IC50 [2] | Ki [2] | IC50 [3] | IC50 [4] | IC50 [5] | IC50 [6] | Ki [6] | IC50 [7] | Ki [7]
